Measurements from patent publication US11433086B2, “Combination of T-cell checkpoint inhibitors with inhibitors of e-selectin or CXCR4, or with heterobifunctional inhibitors of both E-selectin and CXCR4” (GlycoMimetics, Inc., priority 2016, dated 2022).

Assay: Assessment of side effects in CT26.WT tumor-bearing mice (body weight, mortality, necropsy)
Type: in vivo
Procedure: Animals were weighed on each day of treatment. Individual body weights were recorded 3 times weekly. Treatment-related weight loss in excess of 20% was considered unacceptably toxic. In this report, a dosage level is described as tolerated if treatment-related weight loss (during and two weeks after treatment) is <20% and mortality during this period in the absence of potentially lethal tumor burdens is ≤10%. FIG. 6 provides a graph of the percent mean body weight change for the 12 experimental groups.
Upon death or euthanasia, all animals were necropsied to provide a general assessment of potential cause of death and perhaps target organs for toxicity. The presence or absence of metastases was also noted. Remarkable observations of clinical signs and necropsy findings were tabulated as well as individual and group toxicity findings.
This is an individual toxicity parameter.

CCC1CC(C(=O)NCCNCc2ccc(CN3CCCNCCNCCCNCC3)c(Br)c2)CC(OC2OC(CO)C(O)C(O[C@@H](CC3CCCCC3)C(=O)O)C2NC(C)=O)C1OC1OC(C)C(O)C(O)C1O (stereo partly shown) [GMI-1359]
mean weight gain during the treatment regimen (Groups 2-6): 16.8%
treatment-related mortality (Groups 2-6): no treatment-related mortality
weight loss associated with treatment (Groups 2-6): No weight loss
tolerance of treatment (Groups 2-6: GMI-1359 40 mg/kg IP QDx20, antibody 10 mg/kg IP Days 3,6,10,13,17): well tolerated
mean weight gain during the treatment regimen (Groups 8-12): 7.0%
treatment-related mortality (Groups 8-12): no treatment-related mortality
weight loss associated with treatment (Groups 8-12): No weight loss
necropsy findings (Groups 8-12, Day 15): unremarkable
tolerance of treatment (Groups 8-12: GMI-1359 40 mg/kg IP QDx12, antibody 10 mg/kg IP Days 3,6,10,13): well tolerated
tolerance of treatment, summary (summary over both regimens / all groups): well tolerated
